Consider three compounds from patent publication EP3301100A1, “ORGANOMETALLIC FLUCONAZOLE DERIVATES AND THEIR USE AS ANTIMYCOTICS” (Universität Zürich, priority 2016, dated 2018).

SMILES strings stand for the structures. In brackets after ≈: the same amount, converted by molar mass.

In series [1] the test system is human retinal pigment epithelial cell (RPE-1-hTert). In words: cells. As to the method: In both topic and systemic applications, antimycotic drugs are getting in contact with patient tissues. It is therefore of utmost importance that new drug candidates display a lack of host toxicity. Thus, the antiproliferative effect of the new complexes were investigated in vitro on human retinal pigment epithelial cell (RPE-1-hTert). […] Table 1: Host cytotoxicity
Human fibroblast (MRC-5) and retinal pigment epithelial (RPE) cell lines were cultured in F-10 medium supplemented with 10% fetal calf serum (FCS, Gibco), 100 U/mL penicillin, 100 µg/mL streptomycin or DMEM medium (Gibco) supplemented with 10% fetal calf serum (FCS, Gibco), 100 U/mL penicillin, 100 µg/mL streptomycin, respectively, at 37 °C and 6% CO2.
Cytotoxicity studies of the compounds of the present invention were performed by a fluorometric cell viability assay using resazurin (Promocell GmbH). Briefly, one day before treatment the cells were plated in triplicate in 96-well plates at a density of 4 × 10^3 cells per well in 100 µL. Upon treating the cells with increasing concentrations of the compounds of the present invention, the cells were incubated for 48 h at 37 °C/6% CO2, the medium was removed, and 100 µL of complete medium containing resazurin (0.2 mg mL^-1 final concentration) was added. After 4 h of incubation at 37 °C/6% CO2, the fluorescence of the highly red fluorescent resorufin product was quantified at 590 nm emission with 540 nm excitation wavelength using a SpectraMax M5 Microplate Reader. The results were expressed as mean ± standard deviation error of independent experiments.

The test system of another series is Candida albicans. Briefly: Antifungal activity on pathological isolated strain (EUCAST susceptibility testing, MIC50). It counts as cell-based. The conditions noted are these: C. albicans, ≥ 50% inhibition of growth after 48 h incubation. As for the experimental part:
(§1) In vivo studies were performed on pathological isolated strains. […] The compounds of the present invention were tested against Candida albicans, its azole-resistant type and three different pathologic fungi, namely Penicillumpaneum, Aspergillus glaucus and Trichosporonasahi (see table 2). […] Table 2: In vivo antifungal activity
(§2) Candida strains were tested for their susceptibility to the azole (7 dilution series, ranging from 1 mM to 0.01 mM) following the European Committee for Antimicrobial Susceptibility Testing protocol (EUCAST Definitive Document EDef 7.2 Revision, 2012). Briefly, cells were grown in RPMI1640 medium supplied with 2.0% glucose, counted and inoculated at a concentration of 1-5 x 10^5 CFU/ml.

Series [2] relates to C. albicans (res. Strains). The description is as above. It counts as cell-based, Candida albicans. As to conditions: for MIC50: C. albicans (res. Strains), azole-resistant, ≥ 50% inhibition of growth after 48 h incubation. As to the method: as §1, §2
In the next series the test system is P. paneum. The description is as above. It counts as cell-based, Penicillumpaneum. The conditions noted are these: for MIC50: P. paneum, ≥ 50% inhibition of growth after 48 h incubation. As to the method: as §1, §2
The next series has as its system A. glaucus. The series is described as above. It counts as cell-based, Aspergillus glaucus. The conditions noted are these: ≥ 50% inhibition of growth after 48 h incubation. As to the method: as §1, §2
In another series the test system is T. asahi. The description is as above. As to conditions: ≥ 50% inhibition of growth after 48 h incubation. The series is classed as cell-based, Trichosporonasahi. As to the method:
as §1, §2

In another series the test system is Candida Robusta. The conditions noted are these: wild type C. robusta, agar, 24 h at 30 °C; result in words, comparison with the parent drug.

Experimental for Candida Robusta: To evaluate the antifungal acitivty of the new drug candidates, a well-plate based assay was used. The first investigation of antimycotic activity has been performed on a well-known model, namely Candida Robusta. Wild type colony of C. robusta was cultured and diluted to start the growing phase just before treatment and then seeded at different concentrations on the agar terrain poured with different concentrations of the target complexes and incubated for 24 h at 30 °C.
Wild type C. robusta was freshly inoculated and cultured in autoclaved YPD buffer containing 2% bacto peptone, 1% bacto yeast extract and 2% glucose anhydrous at 30°C (Kuehner shaker Labtherm, Kuehner Switzerland).
Briefly, one day before treatment, an aliquot of wild type C. robustawas inoculated in 5 mL YPD buffer solution (see above) and incubated overnight at 30°C. The fungal proliferation was then quantified at 600 nm in a Cary60 UV/Vis (Agilent Technologies). The SC was then seeded at different concentrations of the yeast (representing OD of 0.2, 0.02, 0.002 and 0.0002 for different colony growth rate) in 24-wells plates containing 2 mL growing terrain. […] The fungal colony formation was monitored with Alpha Digitec camera (Bucher Biotec) and the colony density was calculated with Alphalmager software (v1.3.0.7) with multiplex band analysis mode / single tool. […]

For the compound `OC(Cn1cncn1)(Cn1cncn1)c1ccc(F)cc1F` [Fluconazole], the cell viability entry in series [1] is reported as “did not affect cell viability”. Also, the IC50 in series [1] (Homo sapiens, Epithelial cell, 48 h) is > 100 µM. For the same compound, the MIC50 is 0.8 µM (≈ 0.245 µg/mL) with Candida albicans (Candida albicans); > 209 µM in series [2] (Candida albicans); >209 µM against P. paneum; 0.8 µM (≈ 0.245 µg/mL) with A. glaucus (Aspergillus glaucus); 1.6 µM (≈ 0.49 µg/mL) in the series with T. asahi.

Turning to `Cl.OC(CNC[c-]1cccc1)(Cn1cncn1)c1ccc(F)cc1F.[Fe+2].c1cc[cH-]c1` (stereo not drawn) [H, syn/anti-N-(ferrocenylmethyl)-2-(2,4-difluorophenyl)-2-hydroxy-3-(1H-1,2,4-triazol-1-yl)propan-1-aminium chloride], in series [1] (RPE-1-hTert cells, 48 h incubation, resazurin, mean ± standard deviation error), the IC50 is > 100 µM.

Turning to `C[NH+](C[c-]1cccc1)CC(O)(Cn1cncn1)c1ccc(F)cc1F.[Cl-].[Fe+2].c1cc[cH-]c1` (stereo not drawn) [Methyl, syn/anti-N-(ferrocenylmethyl)-2-(2,4-difluorophenyl)-2-hydroxy-N-methyl-3-(1H-1,2,4-triazol-1-yl)propan-1-aminium chloride], the MIC50 with Candida albicans was 0.07 µM; in series [2] it was 0.7 µM; against P. paneum it was 0.25 µM; against A. glaucus, >1 µM; against T. asahi, 0.13 µM. For the same compound, the azole resistance entry in series [2] (C. albicans resistant strain, result in words) is “able to overcome azole resistance”. For the same compound, the “antimycotic potency over the parent drug” value in the series with P. paneum (e.g. P.paneum, factor versus fluconazole) was ≤ 800 fold. Besides, in the series with Candida Robusta, the antifungal activity entry is “highest antimycotic activity”.
